# Measurements as given in US20260000608A1, “COMPOSITIONS AND METHODS FOR ADMINISTERING ANESTHETICS” (Children's Medical Center Corporation, priority 2018, published 2026).
# Where “and” joins values, the source holds several entries; their conditions need not be identical. Identical values can stand only once.
# Columns and labels:
# HUVECs = assay: Cytotoxicity in HUVECs (MTS cell viability); assay type: cell-based, human; details: 0.1 mg/mL free bupivacaine, 24 hours
# Experimental: HUVECs were purchased from ATCC. The cell line was authenticated by the suppliers and passaged in the laboratory for fewer than 3 months after resuscitation. HUVECs were maintained in a 37° C./5% CO2 humidified chamber in Endothelial Cell Growth Medium (EBM-2) (Lonza, USA). When the cells grew to 80% confluence, the cell studies were performed. For cytotoxicity studies, HUVECs were seeded in 96-well plates and incubated with various drug formulations (free bupivacaine, micellar composition comprising bupivacaine, and liposomal composition comprising bupivacaine) for 24 hours. Cell viability was evaluated by CellTiter 96® AQueous One Solution Cell Proliferation Assay (MTS) (Promega, USA) according to suppliers' instructions. The absorbance at 490 nm wavelength was detected with a microplate reader ([…]x, BioTek®, USA). Untreated cells served as a control. Results were shown as the average cell viability [(OD treat OD blank)/(OD control OD blank)×100%] of quintuplicate wells. […] The cells were washed three times with 3 mL of fresh medium and the washing medium was added to the collected incubated medium, the final volume of the collected medium was adjusted to 12 mL and the fluorescence intensity of each medium was measured by fluorescence spectrophotometer (Cary Eclipse, Agilent, USA). […]
# [1] = test system: rat tails and organs (heart, liver, spleen, lung, kidney); assay: Histology (H&E) of tails and organs 24 hours after IVRA; assay type: in vivo; details: 0.5% bupivacaine
# Experimental: 24 hours after the IVRA procedures, rats that had been administered saline, free bupivacaine (0.5% bupivacaine), micellar composition comprising bupivacaine (0.1% bupivacaine), and liposomal composition comprising bupivacaine (0.1% bupivacaine) were euthanized. Tails and organs (e.g., heart, liver, spleen, lung, and kidney) were harvested and fixed with 10% formalin. The organs were processed by standard procedures to produce hematoxylin and eosin-stained (H&E stained) slides. The tails were decalcified to remove bones before H&B staining procedures. Similar regions were examined in each organ from different groups. Tissues from healthy rats (no treatment) were used as negative controls.
# [2] = Bupivacaine concentration in the blood after IVRA and tourniquet release; assay type: in vivo, rat
# Experimental: The following were administered as IVRA: saline, 0.5% free bupivacaine, 0.1% free bupivacaine, micellar composition comprising bupivacaine (0.1% bupivacaine), and liposomal composition comprising bupivacaine (0.1% bupivacaine). After releasing the tourniquet, 200 microliters of blood was collected (through the tail vein opposite from that through formulations were injected) at 15 minutes, 30 minutes, 45 minutes, 90 minutes, 150 minutes, 240 minutes, 480 minutes and 720 minutes. Blood was put in ethylenediaminetetraacetic acid (EDTA) containing blood collection tubes (BD, USA). The samples were stored in ice water for 10-15 minutes and then centrifuged at 3,000 rpm at 4° C. for 5 minutes to obtain plasma. The hemocytes were lysed by ultrasonication (Sonics & Materials, Inc., USA) at 4° C. for 2 minutes and centrifuged at 13,000 rpm at 4° C. for 5 minutes to obtain a supernatant. The supernatant was combined with plasma. Next, 50 microliters of the blood samples were mixed with 10 microliters of sodium hydroxide aqueous solution (1 M) and 0.3 mL ethyl ether in an ice-water bath. The mixtures were vigorously vortexed for 2 minutes and centrifuged at 3,000 rpm for […] at room temperature. The organic phase was transferred to a 4 mL glass vial and evaporated to dryness in a 4° C. ice-water bath under vacuum. The residue was dissolved in 200 microliters of water-methanol (50/50, v/v), and was mechanically agitated for 30 seconds. The samples were transferred to clean polypropylene tubes and centrifuged at 13,000 rpm for 10 minutes. The supernatant was analyzed by HPLC.
# rat tail [3] = assay: Rat tail IVRA (Bier block) assessed by tail-flick test; assay type: in vivo
# Experimental: In a typical IVRA procedures, the rats were anesthetized with isoflurane-oxygen. The tail vein was cannulated with a 24-gauge IV catheter, which was placed in the distal third of the tail and filled with heparinized saline (BD, USA). The tail was exsanguinated by wrapping it with a rubber strip. An elastic tourniquet was tightly applied proximal to the rubber strip and then the rubber strip was removed. Next, 0.4 mL of formulation was injected by a microinjector (1 mL) through the IV catheter. After releasing the tourniquet, animals were allowed to recover from the isoflurane anesthesia, then rat tail IVRA was assessed by the tail-flick test. In brief, tail-flick latency (the time from onset of radiant heat to tail-flick response) was measured by a tail-flick analgesia meter (Tail-Flick Unit 37370; Ugo Basile, Comerio, Italy). The intensity of radiant heat (parameter of the analgesia meter) was set at 90%, and cut-off time of radiant heat was set at 18 seconds. The testing area was between the injection site in the distal tail and the tourniquet, in the proximal tail. Baseline tail-flick latency was measured in untreated and saline injected rats. All evaluations were performed by two trained observers blinded to group allocation.
# rat tail [4] = assay: In vivo imaging (IVIS) of Rhd fluorescence retention in rat tail after tourniquet release; details: one hour after tourniquet release, n=4
# Experimental: For in vivo imaging, the same IVRA procedures were performed, and 0.4 mL of: (i) free Rhd; Rhd-labeled micellar composition comprising bupivacaine; and Rhd-labeled liposomal composition comprising bupivacaine was injected into the tails of rats (n=4) after fastening the tourniquet. Images were taken with an In Vivo Imaging System (PerkinElmer Inc., USA) before releasing the tourniquet, and the signal intensity in those images was considered to be 100%. […] The Rhd signals of each composition were quantified at each time point, and normalized to the intensity before tourniquet release.
# rat tail blood vessels = assay: Distribution within the tail: frozen sections, anti-CD34 staining, CLSM; assay type: in vivo
# Experimental: The slices were imaged by CLSM. The intensity of the Rhd fluorescence was calculated from images using ImageJ.
# [5] = 0.4 mL of 0.5% bupivacaine by IVRA, tourniquet time 5 min
# [6] = 0.4 mL of 0.5% bupivacaine by IVRA, tourniquet time 10 min
# [7] = 0.4 mL of 0.5% bupivacaine by IVRA, tourniquet time 15 min
# [8] = 0.4 mL of 0.5% bupivacaine by IVRA, tourniquet time 20 min
# [9] = 0.4 mL of 0.5% bupivacaine by IVRA, tourniquet time 30 min
# [10] = bupivacaine concentration 0.1% w/v, 0.4 mL, 15 minute tourniquet
# [11] = bupivacaine concentration 0.5% w/v, 0.4 mL, 15 minute tourniquet
compound,measurement,setting,value
"CCCCN1CCCCC1C(=O)Nc1c(C)cccc1C (centres unmarked) [Free bupivacaine, bupivacaine]",cells alive,HUVECs,22.1+/−2.4%
same,"histology of heart, liver, spleen, lung and kidney (H&E)",[1],no histological abnormalities
same,tail myotoxicity (H&E),[1],no myotoxicity
same,mortality,"[2]; 0.5% free bupivacaine by IVRA, rats",none died
same,clinical observation after tourniquet release,"[2]; rat, in vivo",dyspnea
same,time of peak bupivacaine concentration in blood,"[2]; rat, in vivo",45 min
same,anesthetic effect (tail-flick),"rat tail [3]; 0.1% bupivacaine, comparable to saline",did not achieve any anesthetic effect
same,Anesthesia Duration,rat tail [3]; [5],0 h
same,Successful Anesthesia (%),rat tail [3]; [5],0%
same,Anesthesia Duration,rat tail [3]; [6],0.3 ± 0.5 h
same,Successful Anesthesia (%),rat tail [3]; [6],25%
same,Anesthesia Duration,rat tail [3]; [7],2 h and 2.0 ± 0.6 h
same,Successful Anesthesia (%),rat tail [3]; [7],100%
same,animals with anesthesia,"rat tail [3]; 0.4 mL of 0.5% bupivacaine by IVRA, tourniquet time 15 minutes",four of four
same,Anesthesia Duration,rat tail [3]; [8],1.9 ± 0.5 h
same,Successful Anesthesia (%),rat tail [3]; [8],100%
same,Anesthesia Duration,rat tail [3]; [9],2.0 ± 0.5 h
same,Successful Anesthesia (%),rat tail [3]; [9],100%
same,Anesthesia Duration,rat tail [3]; [10],0 h
same,Successful Anesthesia (%),rat tail [3]; [10],0%
same,Anesthesia Duration,rat tail [3]; [11],2.0 ± 0.6 h
same,Successful Anesthesia (%),rat tail [3]; [11],100%
same,Anesthesia Duration,"rat tail [3]; bupivacaine concentration 0.5% w/v, 0.4 mL, 15 minute tourniquet, listed as free bupivacaine",2.0 ± 0.6 h
rhodamine [free Rhd],"fluorescence intensity in the rat tail, % of intensity before tourniquet release",rat tail [4],~50%
same,Rhd signal in tail sections (fluorescence microscopy),rat tail blood vessels; 15 minutes after release of the tourniquet,very strong Rhd signals co-localized with blood vessel
same,Rhd signal in tail sections (fluorescence microscopy),rat tail blood vessels; four hours after release of the tourniquet,much weaker than at 15 minutes
